Experimental data from patent publication US10801035B2, “Plants having increased tolerance to herbicides” (BASF SE, priority 2011, dated 2020).

Experiments:
[1] = molecular target: T1, Hordeum HPPD variant L320N (Hordeum vulgare, UniProt O48604, A164G/L320N/R146V/R147D/R148G); test: HPPD activity assay, Hordeum HPPD mutant L320N; assay type: biochemical; conditions: normalized on wildtype
T1 construct: His6; made in house; host or cells: E. coli BL21 (DE3)
Method: (§1) HPPD produces homogentisic acid and CO2 from 4-hydroxyphenylpyruvate (4-HPP) and O2. The activity assay for HPPD is based on the analysis of homogentisic acid by reversed phase HPLC.
(§2) The assay mixture can contain 150 mM potassium phosphate buffer pH 7.0, 50 mM L-ascorbic acid, 1 μM FeSO4 and 7 μg of purified enzyme in a total volume of 1 ml. Inhibitors are dissolved in DMSO (dimethylsulfoxide) to a concentration of 20 mM or 0.5 mM, respectively. From this stock solution serial five-fold dilutions are prepared in DMSO, which are used in the assay. The respective inhibitor solution accounts for 1% of the assay volume. Thus, final inhibitor concentrations range from 200 μM to 2.5 nM or from 5 μM to 63 pM, respectively. After a preincubation of 30 min the reaction is started by adding 4-HPP to a final concentration of 0.1 mM. […]
(§3) Inhibitors are dissolved in DMSO (dimethylsulfoxide) to a concentration of 0.5 mM. […] IC50 values are calculated using non-linear regression.
(§4) Purified, mutant HPPD enzymes are obtained by the methods described above. […] Apparent michaelis constants (Km) and maximal reaction velocities (Vmax) are calculated by non-linear regression with the software GraphPad Prism 5 (GraphPad Software, La Jolla, USA) using a substrate inhibition model. […] Weighted means (by standard error) of Km and […] values are calculated from at least three independent experiments. […]

[2] = molecular target: T2, Arabidopsis HPPD variant M335H, P336A, E363Q (Arabidopsis thaliana, UniProt P93836, E363Q/M335H/P336A); test: HPPD activity assay, Arabidopsis HPPD mutant M335H, P336A, E363Q; assay type: biochemical; conditions: normalized on wildtype
T2 construct: His6 (N); made in house; host or cells: E. coli BL21 (DE3)
Method: as §1, §2, §3, §4

[3] = tested on: transgenic Arabidopsis plants overexpressing Barley HPPD (Seq ID: 2); test: Arabidopsis growth inhibition in 48-well plates, line overexpressing Barley HPPD; assay type: in vivo, Arabidopsis thaliana; conditions: Barley HPPD (Seq ID: 2) overexpression line; plant growth IC50 of transgenic divided by wildtype
Method: Depending on the species, the plants are kept at 10-25° C. or 20-35° C. The test period extends over 3 weeks. During this time, the plants are tended and their response to the individual treatments is evaluated. Herbicide injury evaluations are taken at 2 and 3 weeks after treatment. Plant injury is rated on a scale of 0 to 9, 0 being no injury and 9 being complete death. Tolerance to coumarone-derivative herbicides can also be assessed in Arabidopsis. In this case transgenic Arabidopsis thaliana plants are assayed for improved tolerance to coumarone-derivative herbicides in 48-well plates. Seeds are surface sterilized by stirring for 5 min in ethanol+water (70+30 by volume), rinsing one time with ethanol+water (70+30 by volume) and two times with a sterile, deionized water. The seeds are resuspended in 0.1% agar dissolved in water (w/v). Four to five seeds per well are plated on solid nutrient medium consisting of half-strength Murashige Skoog nutrient solution, pH 5.8 (Murashige and Skoog (1962) Physiologia Plantarum 15: 473-497). […] Seven to ten days after seeding growth inhibition is evaluated by comparison to wild type plants. Tolerance factor is calculated by dividing the plant growth IC50 value of transgenic plants containing a HPPD and/or HST sequence by that of wildtype plants. […]

T2 sequence (P93836 whole entry M335H/P336A/E363Q): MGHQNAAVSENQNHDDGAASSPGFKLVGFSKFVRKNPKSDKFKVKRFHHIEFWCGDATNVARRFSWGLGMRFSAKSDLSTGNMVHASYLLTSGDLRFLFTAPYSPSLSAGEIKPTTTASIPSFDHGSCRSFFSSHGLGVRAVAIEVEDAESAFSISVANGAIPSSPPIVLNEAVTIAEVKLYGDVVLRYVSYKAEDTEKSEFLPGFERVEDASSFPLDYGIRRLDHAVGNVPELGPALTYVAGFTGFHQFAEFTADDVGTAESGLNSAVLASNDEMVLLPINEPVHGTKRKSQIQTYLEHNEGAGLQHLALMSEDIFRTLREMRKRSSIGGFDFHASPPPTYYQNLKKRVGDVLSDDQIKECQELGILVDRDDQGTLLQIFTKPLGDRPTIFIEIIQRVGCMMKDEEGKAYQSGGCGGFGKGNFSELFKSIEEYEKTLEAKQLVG
T1 sequence (O48604 whole entry R146V/R147D/R148G/A164G/L320N): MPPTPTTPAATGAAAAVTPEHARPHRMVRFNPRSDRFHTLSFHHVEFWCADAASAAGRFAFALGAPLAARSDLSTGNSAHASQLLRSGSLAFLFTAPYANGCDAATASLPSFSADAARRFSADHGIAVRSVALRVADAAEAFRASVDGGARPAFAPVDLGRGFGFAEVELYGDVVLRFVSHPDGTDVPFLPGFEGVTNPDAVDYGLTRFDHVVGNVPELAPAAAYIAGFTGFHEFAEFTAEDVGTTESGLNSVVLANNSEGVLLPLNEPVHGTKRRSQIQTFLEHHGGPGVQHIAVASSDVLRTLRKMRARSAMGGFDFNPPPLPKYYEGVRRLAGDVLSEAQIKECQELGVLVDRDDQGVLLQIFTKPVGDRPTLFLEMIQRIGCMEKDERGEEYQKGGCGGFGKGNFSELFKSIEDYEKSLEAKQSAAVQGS

What does the source list for `O=S1(=O)C(c2c(Cl)cc(Cl)nc2Cl)=C(O)c2ncccc2N1CC(F)F` [Inhibitor 2, 1-(2,2-difluoroethyl)-2,2-dioxo-3-(2,4,6-trichloro-3-pyridyl)pyrido[3,2-c]thiazin-4-ol]?
Normalized tolerance index (TI) [1]: 1.7; Normalized tolerance index (TI) [2]: 1.2; Tolerance factor [3]: 4

How did the “Normalized tolerance index (TI)” value [1] turn out when `CC1=NOC(c2c(Cl)ccc(C3=C(O)c4ncccc4N(CC(F)F)S3(=O)=O)c2Cl)C1` (stereo not drawn) [Inhibitor 1, 3-[2,4-dichloro-3-(3-methyl-4,5-dihydroisoxazol-5-yl)phenyl]-1-(2,2-difluoroethyl)-2,2-dioxo-pyrido[3,2-c]thiazin-4-ol] was run?
Its value is 3.3.

And the “Normalized tolerance index (TI)” value [2]?
The value was 3.

And the Tolerance factor [3]?
The Tolerance factor was 3.
